According to ChEMBL document CHEMBL1629619, “qnrD, a novel gene conferring transferable quinolone resistance in Salmonella enterica serovar Kentucky and Bovismorbificans strains of human origin” (2009):
In brackets after ≈: the same amount, converted by molar mass. Activity calls are given as the source filed them. The rule behind the calls is not given here.

Assays:
Salmonella enterica [1] = assay: Antimicrobial activity against Salmonella enterica HN-GSS-2007-057 by broth microdilution assay; format: functional, organism-based
Escherichia coli [2] = assay: Antimicrobial activity against Escherichia coli DH10B harboring pBR322 by broth microdilution assay; format: functional; settings: K-12 DH10B
Salmonella enterica [3] = assay: Antimicrobial activity against Salmonella enterica HN-GSS2007-0.056 by broth microdilution assay; format: functional, organism-based
Escherichia coli [4] = assay: Antimicrobial activity against Escherichia coli DH10B harboring pBR322 with Salmonella enterica HN-GSS-2007-057 qnrD gene by broth microdilution assay; format: functional; settings: K-12 DH10B
Salmonella enterica [5] = assay: Antimicrobial activity against Salmonella enterica HN-GSS2006-142 by broth microdilution assay; format: functional, organism-based
Escherichia coli [6] = assay: Antimicrobial activity against Escherichia coli DH10B harboring pBR322 with Salmonella enterica HN-GSS-2007-057 qnrA1 gene by broth microdilution assay; format: functional; settings: K-12 DH10B
Salmonella enterica [7] = assay: Antimicrobial activity against Salmonella enterica HN-GSS2007-0.033 by broth microdilution assay; format: functional, organism-based
Escherichia coli [8] = assay: Antimicrobial activity against Escherichia coli DH10B harboring p2007057 by broth microdilution assay; format: functional; settings: K-12 DH10B
Escherichia coli [9] = assay: Antimicrobial activity against Escherichia coli DH10B by broth microdilution assay; format: functional; settings: K-12 DH10B
Escherichia coli [10] = assay: Antimicrobial activity against Escherichia coli DH10B harboring pBR322 with Salmonella enterica HN-GSS-2007-057 qnrS1 gene by broth microdilution assay; format: functional; settings: K-12 DH10B
[11] = Antimicrobial activity against Salmonella enterica serovar Kentucky by broth microdilution assay
[12] = Antimicrobial activity against Salmonella enterica serovar Bovismorbificans by broth microdilution assay; format: functional, Salmonella enterica subsp. enterica serovar Bovismorbificans

SMILES	Activity (Salmonella enterica [1])	MIC (Escherichia coli [2]) [µg/mL]	Activity (Salmonella enterica [3])	MIC (Escherichia coli [4]) [µg/mL]	Activity (Salmonella enterica [5])	MIC (Escherichia coli [6]) [µg/mL]	Activity (Salmonella enterica [7])	MIC (Escherichia coli [8]) [µg/mL]	MIC (Escherichia coli [9]) [µg/mL]	MIC (Escherichia coli [10]) [µg/mL]	MIC [11] [µg/mL]	MIC [12] [µg/mL]
CC1COc2c(N3CCN(C)CC3)c(F)cc3c(=O)c(C(=O)O)cn1c23 (stereo unspecified) [OFLOXACIN]	Active	0.032 (≈ 0.0886 µM)	Active	0.125 (≈ 0.346 µM)	Active	0.25 (≈ 0.692 µM)	Active	0.25 (≈ 0.692 µM)	–	–	–	–
CCn1cc(C(=O)O)c(=O)c2cc(F)c(N3CCNCC3)cc21 [NORFLOXACIN]	Active	0.015 (≈ 0.047 µM)	Active	0.06 (≈ 0.188 µM)	Active	0.25 (≈ 0.783 µM)	Active	0.125 (≈ 0.391 µM)	0.015 (≈ 0.047 µM)	0.5 (≈ 1.57 µM)	–	–
O=C(O)c1cn(C2CC2)c2cc(N3CCNCC3)c(F)cc2c1=O [CIPROFLOXACIN]	–	–	–	–	–	–	–	–	–	–	0.125 (≈ 0.377 µM)	–
CCn1cc(C(=O)O)c(=O)c2ccc(C)nc21 [NALIDIXIC ACID]	–	2 (≈ 8.61 µM)	–	4 (≈ 17.2 µM)	–	8 (≈ 34.4 µM)	–	8 (≈ 34.4 µM)	2 (≈ 8.61 µM)	8 (≈ 34.4 µM)	–	8 (≈ 34.4 µM)
